From US12516064B2, “Tetrahydropyridopyrimidines and related analogs for inhibiting YAP/TAZ-TEAD” (THE KATHOLIEKE UNIVERSITEIT LEUVEN, priority 2022, dated 2026)

What was measured:
Type in all cases: cell-based
[1] = system: YAP/TAZ-TEAD transcription; test: Reporter gene assay for measuring the inhibition of YAP/TAZ-TEAD transcription; conditions: Homo sapiens, HEK-293T; Hek293T cells transiently transfected with TEAD-responsive element luciferase reporter; 24 hours incubation
How it was run: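 HEK293T cells transiently transfected with a TEAD-responsive luciferase reporter, plated onto pre-diluted compounds and incubated 24 h at 37 °C/5% CO2. Luminescence read after SteadyLite substrate; percent inhibition scaled between vehicle (0%) and positive control inhibitor (100%), giving IC50/EC50.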

[2] = system: NCI-H226; test: Mesothelioma cell line proliferation assay (NCI-H226); conditions: Homo sapiens, 144 h; NCI-H226 cells; 6 days with compound; cell viability by ATPlite
Experimental: (§1) Mesothelioma cell lines, NCI-H226 and NCI-H2052 (all sourced from the ATCC cell culture collection) are plated in 96-well plates (Corning® 96 Well White Polystyrene Microplate clear flat bottom, white polystyrene (TC-Treated)), at 1500 cells/well in full medium (RPMI 1640 ATCC modification with L-glutamine, HEPES, Phenol Red, Sodium Pyruvate, High glucose, Low sodium bicarbonate and 10% fetal bovine serum). Cells are incubated overnight at 37° C. in an incubator with 5% CO2. Then compounds, dissolved in DMSO, are added in dose-response. Cells are incubated with compound dilutions for another 6 days at 37° C. in an incubator with 5% CO2. Cell viability is quantitated using the ATPlite kit (Perkin-Elmer) and the luminescence is read-out using an Envision instrument (Perkin-Elmer). The amount of relative light units produced using the ATPlite kit is used to calculated percent of inhibition.
(§2) The activities of some example compounds are depicted in Table 9. The activity ranges A, B and C refer to EC50 values in the mesothelioma cell line proliferation assay as described as follows: “A”: EC50<1 μM; “B”: 1 μM≤EC50≤10 μM and “C”: EC50>10 μM; NT: not tested.

[3] = system: NCI-H2052; test: Mesothelioma cell line proliferation assay (NCI-H2052); conditions: Homo sapiens, 144 h; NCI-H2052 cells; 6 days with compound; cell viability by ATPlite
Experimental: as §1, §2

| Structure (SMILES) | EC50 [1] [nM] | EC50 [2] [nM] | EC50 [3] [nM] |
| --- | --- | --- | --- |
| C=CC(=O)N1CCc2c(nc(-c3ccc(F)cc3)nc2-c2ccn(C)n2)C1 [Cpd. No. 51, 1-(2-(4-fluorophenyl)-4-(1-methyl-1H-pyrazol-3-yl)-5,8-dihydropyrido[3,4-d]pyrimidin-7(6H)-yl)prop-2-en-1-one] | < 1000 | < 1000 | > 10000 |
| C=CC(=O)N1CCc2c(nc(-c3cccc(F)c3)nc2-c2ccn(C)n2)C1 [Cpd. No. 52, 1-(2-(3-fluorophenyl)-4-(1-methyl-1H-pyrazol-3-yl)-5,8-dihydropyrido[3,4-d]pyrimidin-7(6H)-yl)prop-2-en-1-one] | < 1000 | < 1000 | 1000 to 10000 |
| C=CC(=O)N1CCc2c(nc(-c3ccc(F)c(F)c3)nc2-c2ccn(C)n2)C1 [Cpd. No. 53, 1-(2-(3,4-difluorophenyl)-4-(1-methyl-1H-pyrazol-3-yl)-5,8-dihydropyrido[3,4-d]pyrimidin-7(6H)-yl)prop-2-en-1-one] | < 1000 | < 1000 | 1000 to 10000 |
| C=CC(=O)N1CCc2c(nc(-c3ccccc3)nc2-c2ccn(C(F)F)n2)C1 [Cpd. No. 65, 1-(4-(1-(difluoromethyl)-1H-pyrazol-3-yl)-2-phenyl-5,8-dihydropyrido[3,4-d]pyrimidin-7(6H)-yl)prop-2-en-1-one] | < 1000 | 1000 to 10000 | 1000 to 10000 |
| C=C(F)C(=O)N1CCc2c(nc(-c3ccc(C(F)(F)F)cc3)nc2-c2ccn(C)n2)C1 [Cpd. No. 71, 2-fluoro-1-(4-(1-methyl-1H-pyrazol-3-yl)-2-(4-(trifluoromethyl)phenyl)-5,8-dihydropyrido[3,4-d]pyrimidin-7(6H)-yl)prop-2-en-1-one] | < 1000 | < 1000 | > 10000 |
| CC#CC(=O)N1CCc2c(nc(-c3ccc(C(F)(F)F)cc3)nc2-c2ccn(C)n2)C1 [Cpd. No. 86, 1-(4-(1-methyl-1H-pyrazol-3-yl)-2-(4-(trifluoromethyl)phenyl)-5,8-dihydropyrido[3,4-d]pyrimidin-7(6H)-yl)but-2-yn-1-one] | < 1000 | < 1000 | < 1000 |
| Cn1ccc(-c2nc(-c3ccc(C(F)(F)F)cc3)nc3c2CCN(C(=O)C2CO2)C3)n1 (stereo not drawn) [Cpd. No. 88, (4-(1-methyl-1H-pyrazol-3-yl)-2-(4-(trifluoromethyl)phenyl)-5,8-dihydropyrido[3,4-d]pyrimidin-7(6H)-yl)(oxiran-2-yl)methanone] | < 1000 | < 1000 | 1000 to 10000 |
| C=CC(=O)N1CCc2c(nc(C3CCC(F)(F)CC3)nc2-c2ccn(C)n2)C1 [Cpd. No. 89, 1-(2-(4,4-difluorocyclohexyl)-4-(1-methyl-1H-pyrazol-3-yl)-5,8-dihydropyrido[3,4-d]pyrimidin-7(6H)-yl)prop-2-en-1-one] | < 1000 | < 1000 | > 10000 |
| CCC(=O)N1CCc2c(nc(C3CCC(F)(F)CC3)nc2-c2ccn(C)n2)C1 [Cpd. No. 90, 1-(2-(4,4-difluorocyclohexyl)-4-(1-methyl-1H-pyrazol-3-yl)-5,8-dihydropyrido[3,4-d]pyrimidin-7(6H)-yl)propan-1-one] | 1000 to 3000 | > 10000 | > 10000 |
| CC#CC(=O)N1CCc2c(nc(C3CCC(F)(F)CC3)nc2-c2ccn(C)n2)C1 [Cpd. No. 94, 1-(2-(4,4-difluorocyclohexyl)-4-(1-methyl-1H-pyrazol-3-yl)-5,8-dihydropyrido[3,4-d]pyrimidin-7(6H)-yl)but-2-yn-1-one] | < 1000 | < 1000 | > 10000 |

Other lines, results leading:

| EC50 [1] [nM] | EC50 [2] [nM] | EC50 [3] [nM] | Structure (SMILES) |
| --- | --- | --- | --- |
| < 1000 | < 1000 | 1000 to 10000 | C=CC(=O)N1CCc2c(nc(Cc3cccc(C(F)(F)F)c3)nc2-c2ccn(C)n2)C1 [Cpd. No. 46, 1-(4-(1-methyl-1H-pyrazol-3-yl)-2-(3-(trifluoromethyl)benzyl)-5,8-dihydropyrido[3,4-d]pyrimidin-7(6H)-yl)prop-2-en-1-one] |
| < 1000 | < 1000 | > 10000 | C=CC(=O)N1CCc2c(nc(Cc3ccc(C(F)(F)F)cc3)nc2-c2ccn(Cc3cccnc3)n2)C1 [Cpd. No. 49, 1-(4-(1-(pyridin-3-ylmethyl)-1H-pyrazol-3-yl)-2-(4-(trifluoromethyl)benzyl)-5,8-dihydropyrido[3,4-d]pyrimidin-7(6H)-yl)prop-2-en-1-one] |
| < 1000 | < 1000 | 1000 to 10000 | C=CC(=O)N1CCc2c(nc(-c3ccc(C(F)(F)F)cc3)nc2-c2ccn(C)n2)C1 [Cpd. No. 54, 1-(4-(1-methyl-1H-pyrazol-3-yl)-2-(4-(trifluoromethyl)phenyl)-5,8-dihydropyrido[3,4-d]pyrimidin-7(6H)-yl)prop-2-en-1-one] |
| < 1000 | < 1000 | 1000 to 10000 | C=CC(=O)N1CCc2c(nc(-c3cccc(C(F)(F)F)c3)nc2-c2ccn(C)n2)C1 [Cpd. No. 55, 1-(4-(1-methyl-1H-pyrazol-3-yl)-2-(3-(trifluoromethyl)phenyl)-5,8-dihydropyrido[3,4-d]pyrimidin-7(6H)-yl)prop-2-en-1-one] |
| < 1000 | < 1000 | 1000 to 10000 | C=CC(=O)N1CCc2c(nc(-c3ccc(C(F)(F)F)cc3)nc2-c2ccn(C(F)F)n2)C1 [Cpd. No. 69, 1-(4-(1-(difluoromethyl)-1H-pyrazol-3-yl)-2-(4-(trifluoromethyl)phenyl)-5,8-dihydropyrido[3,4-d]pyrimidin-7(6H)-yl)prop-2-en-1-one] |
| < 1000 | < 1000 | 1000 to 10000 | C=CC(=O)N1CCc2c(nc(-c3ccc(C(F)(F)F)cc3)nc2-c2ccn(CCOC)n2)C1 [Cpd. No. 73, 1-(4-(1-(2-methoxyethyl)-1H-pyrazol-3-yl)-2-(4-(trifluoromethyl)phenyl)-5,8-dihydropyrido[3,4-d]pyrimidin-7(6H)-yl)prop-2-en-1-one] |
| < 1000 | < 1000 | 1000 to 10000 | C/C=C/C(=O)N1CCc2c(nc(-c3ccc(C(F)(F)F)cc3)nc2-c2ccn(C)n2)C1 [Cpd. No. 74, (E)-1-(4-(1-methyl-1H-pyrazol-3-yl)-2-(4-(trifluoromethyl)phenyl)-5,8-dihydropyrido[3,4-d]pyrimidin-7(6H)-yl)but-2-en-1-one] |
| < 1000 | < 1000 | > 10000 | C=C(C)C(=O)N1CCc2c(nc(-c3ccc(C(F)(F)F)cc3)nc2-c2ccn(C)n2)C1 [Cpd. No. 77, 2-methyl-1-(4-(1-methyl-1H-pyrazol-3-yl)-2-(4-(trifluoromethyl)phenyl)-5,8-dihydropyrido[3,4-d]pyrimidin-7(6H)-yl)prop-2-en-1-one] |
| < 1000 | 1000 to 10000 | 1000 to 10000 | C=CC(=O)N1CCc2c(nc(-c3ccc(C(F)(F)F)cc3)nc2-c2cn(C)nn2)C1 [Cpd. No. 87, 1-(4-(1-methyl-1H-1,2,3-triazol-4-yl)-2-(4-(trifluoromethyl)phenyl)-5,8-dihydropyrido[3,4-d]pyrimidin-7(6H)-yl)prop-2-en-1-one] |
| < 1000 | < 1000 | 1000 to 10000 | C=CC(=O)N1CCc2c(nc(-c3ccc(C(F)(F)F)cc3)nc2-c2cnn(C)n2)C1 [Cpd. No. 92, 1-(4-(2-methyl-2H-1,2,3-triazol-4-yl)-2-(4-(trifluoromethyl)phenyl)-5,8-dihydropyrido[3,4-d]pyrimidin-7(6H)-yl)prop-2-en-1-one] |
